Structures can show the parent of a compound that is named as a salt.

What is called melting point is the temperature, or range, at which the solid turns liquid. In the case of `Cc1nc2cc(-c3ccc4nc(CCN5CCC[C@H]5C)ccc4c3)ccc2s1` (as salt: hydrochloride) [Example 14, 6-(2-Methyl-benzothiazol-5-yl)-2-[2-(2R-methyl-pyrrolidin-1-yl)-ethyl]-quinoline], the melting point fell in the range of 182 to 183 °C.

These data come from patent US20050256309A1, “Tri-and bi-cyclic heteroaryl histamine-3 receptor ligands” (priority 2004, published 2005).
